Source: patent US8530490B2, “Uracil compound or salt thereof having human deoxyuridine triphosphatase inhibitory activity” (Taiho Pharmaceutical Co., Ltd., priority 2008, dated 2013)

Target: human dUTPase (Homo sapiens (Human), UniProt P33316)
Experiment: Human dUTPase inhibitory effect: production of [5-3H]dUMP from [5-3H]dUTP, measured by HPLC with flow scintillation
Type: biochemical
Conditions: [5-3H]dUMP production from [5-3H]dUTP, 37° C., 15 minutes
Experimental: The inhibitory activity of the compound of the present invention against human dUTPase was determined by measuring the production of [5-^3H]deoxyuridine monophosphate (hereinafter, referred to as [5-^3H]dUMP) from [5-^3H]deoxyuridine triphosphate (hereinafter, referred to as [5-^3H]dUTP) according to a method shown below.
Specifically, 0.2 mL in total of a solution containing 0.02 mL of 1 μM dUTP (including 588 Bq/mL [5-3H]dUTP), 0.05 mL of a 0.2 M Tris buffer solution (pH 7.4), 0.05 mL of 16 mM magnesium chloride, 0.02 mL of 20 mM 2-mercaptoethanol, 0.02 mL of a 1% aqueous solution of fetal bovine serum-derived albumin, 0.02 mL of varying concentrations of test compound solutions or pure water as a control, and 0.02 mL of a solution of human dUTPase (expressed using E. coli and purified) was reacted at 37° C. for 15 minutes. Immediately after the reaction, the solution was heated at 100° C. for 1 minute to terminate the reaction, followed by centrifugation at 15000 rpm for 2 minutes. An aliquot (150 μL) of the supernatant thus obtained by centrifugation was analyzed using an Atlantis dC18 column (manufactured by Waters Corp., 4.6×250 mm) and a high-performance liquid chromatograph (manufactured by Shimadzu Corp., Prominence). Elution was performed at a flow rate of 0.8 mL/min for 30 minutes by a concentration gradient from a 4:6 mixed solution of a mobile phase A (10 mM potassium dihydrogen phosphate (pH 6.7), 10 mM tetrabutylammonium, and 0.25% methanol) and a mobile phase B (50 mM potassium dihydrogen phosphate (pH 6.7), 5.6 mM tetrabutylammonium, and 30% methanol) to the mobile phase B. The eluate was mixed with a scintillator (manufactured by PerkinElmer Co., Ltd., Ultima-Flo AP) at a 1:2 ratio, and the radioactivity of the produced [5-^3H]dUMP (RT 10.2 min) was measured using Radiomatic Flow Scintillation Analyzer (manufactured by PerkinElmer Co., Ltd., 525TR).
The inhibitory activity of the test compound was determined according to the formula shown below.

Chain of human dUTPase (P33316 94-252): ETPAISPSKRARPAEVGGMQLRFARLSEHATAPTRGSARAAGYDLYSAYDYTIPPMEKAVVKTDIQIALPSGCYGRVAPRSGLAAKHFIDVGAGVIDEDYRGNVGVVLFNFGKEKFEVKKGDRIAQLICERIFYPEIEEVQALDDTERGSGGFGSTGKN

| Compound | IC50 [nM] |
| --- | --- |
| CC[C@@H](NS(=O)(=O)CCCOCn1ccc(=O)[nH]c1=O)c1cccc(OCC2CC2)c1 [Example 27, (R)—N-(1-(3-(cyclopropylmethoxy)phenyl)propyl)-3-((2,4-dioxo-3,4-dihydropyrimidin-1(2H)-yl)methoxy)propane-1-sulfonamide] | 40 |
| CC(C)(NS(=O)(=O)CCCOCn1ccc(=O)[nH]c1=O)c1ccc(F)c(OCC2CC2)c1 [Example 28, N-(2-(3-(cyclopropylmethoxy)-4-fluorophenyl)propan-2-yl)-3-((2,4-dioxo-3,4-dihydropyrimidin-1(2H)-yl)methoxy)propane-1-sulfonamide] | 360 |
| O=c1ccn(COCCCS(=O)(=O)NC(c2ccccc2)c2cccc(OCC3CCC3)c2)c(=O)[nH]1 (stereo not drawn) [Example 29, N-((3-(cyclobutylmethoxy)phenyl)(phenyl)methyl)-3-((2,4-dioxo-3,4-dihydropyrimidin-1(2H)-yl)methoxy)propane-1-sulfonamide] | 890 |
| O=c1ccn(COCCCS(=O)(=O)NC(c2cccc(OCC3CC3)c2)C2CC2)c(=O)[nH]1 (stereo not drawn) [Example 30, N-(cyclopropyl(3-(cyclopropylmethoxy)phenyl)methyl)-3-((2,4-dioxo-3,4-dihydropyrimidin-1(2H)-yl)methoxy)propane-1-sulfonamide] | 360 |
| CC(C)C(NS(=O)(=O)CCCOCn1ccc(=O)[nH]c1=O)c1cccc(OCC2CC2)c1 (stereo not drawn) [Example 31, N-(1-(3-(cyclopropylmethoxy)phenyl)-2-methylpropyl)-3-((2,4-dioxo-3,4-dihydropyrimidin-1(2H)-yl)methoxy)propane-1-sulfonamide] | 330 |
| CC(NS(=O)(=O)CCCOCn1ccc(=O)[nH]c1=O)c1cccc(OC2CCCC2)c1 (stereo not drawn) [Example 32, N-(1-(3-(cyclopentyloxy)phenyl)ethyl)-3-((2,4-dioxo-3,4-dihydropyrimidin-1(2H)-yl)methoxy)propane-1-sulfonamide] | 140 |
| O=c1ccn(COCCCS(=O)(=O)NCc2cccc(OC3CC3)c2)c(=O)[nH]1 [Example 33, N-(3-cyclopropoxybenzyl)-3-((2,4-dioxo-3,4-dihydropyrimidin-1(2H)-yl)methoxy)propane-1-sulfonamide] | 1130 |
| CCC(NS(=O)(=O)CCCOCn1ccc(=O)[nH]c1=O)c1ccc(F)c(OCC2CC2)c1 (stereo not drawn) [Example 34, N-(1-(3-(cyclopropylmethoxy)-4-fluorophenyl)propyl)-3-((2,4-dioxo-3,4-dihydropyrimidin-1(2H)-yl)methoxy)propane-1-sulfonamide] | 30 |
| CC(C)[C@H](NS(=O)(=O)CCCOCn1ccc(=O)[nH]c1=O)c1ccc(F)c(OCC2CC2)c1 [Example 35, (S)—N-(1-(3-(cyclopropylmethoxy)-4-fluorophenyl)-2-methylpropyl)-3-((2,4-dioxo-3,4-dihydropyrimidin-1(2H)-yl)methoxy)propane-1-sulfonamide] | 1550 |
| CC(NS(=O)(=O)CCCOCn1ccc(=O)[nH]c1=O)c1ccc(F)c(OCC2CC2)c1 (stereo not drawn) [Example 36, N-(1-(3-(cyclopropylmethoxy)-4-fluorophenyl)ethyl)-3-((2,4-dioxo-3,4-dihydropyrimidin-1(2H)-yl)methoxy)propane-1-sulfonamide] | 150 |
| O=c1ccn(COCCCS(=O)(=O)N[C@H](c2ccc(F)cc2)c2ccc(F)c(OCC3CC3)c2)c(=O)[nH]1 [Example 37, (R)—N-((3-(cyclopropylmethoxy)-4-fluorophenyl)(4-fluorophenyl)methyl)-3-((2,4-dioxo-3,4-dihydropyrimidin-1(2H)-yl)methoxy)propane-1-sulfonamide] | 100 |
| O=c1ccn(COCCCS(=O)(=O)N[C@@H](c2ccc(F)c(OCC3CC3)c2)c2cccs2)c(=O)[nH]1 [Example 38, (S)—N-((3-(cyclopropylmethoxy)-4-fluorophenyl)(thiophen-2-yl)methyl)-3-((2,4-dioxo-3,4-dihydropyrimidin-1(2H)-yl)methoxy)propane-1-sulfonamide] | 30 |
| O=c1ccn(COCCCS(=O)(=O)NC2(c3cccc(OCC4CC4)c3)CCCC2)c(=O)[nH]1 [Example 39, N-(1-(3-(cyclopropylmethoxy)phenyl)cyclopentyl)-3-((2,4-dioxo-3,4-dihydropyrimidin-1(2H)-yl)methoxy)propane-1-sulfonamide] | 280 |
| O=c1ccn(COCCCS(=O)(=O)N[C@@H](c2ccc(F)c(OCC3CC3)c2)C2CC2)c(=O)[nH]1 [Example 40, (R)—N-(cyclopropyl (3-(cyclopropylmethoxy)-4-fluorophenyl)methyl)-3-((2,4-dioxo-3,4-dihydropyrimidin-1(2H)-yl)methoxy)propane-1-sulfonamide] | 100 |
| CC[C@@H](NS(=O)(=O)CCCOCn1ccc(=O)[nH]c1=O)c1cccc(OC2CCCC2)c1 [Example 41, (R)—N-(1-(3-(cyclopentyloxy)phenyl)propyl)-3-((2,4-dioxo-3,4-dihydropyrimidin-1(2H)-yl)methoxy)propane-1-sulfonamide] | 40 |
| O=c1ccn(COCCCS(=O)(=O)N[C@@H](c2cccc(OC3CCCC3)c2)C2CC2)c(=O)[nH]1 [Example 42, (R)—N-((3-(cyclopentyloxy)phenyl)(cyclopropyl)methyl)-3-((2,4-dioxo-3,4-dihydropyrimidin-1(2H)-yl)methoxy)propane-1-sulfonamide] | 330 |
| CC[C@@H](NS(=O)(=O)CCCOCn1ccc(=O)[nH]c1=O)c1cccc(OC2CC2)c1 [Example 43, (R)—N-(1-(3-cyclopropoxyphenyl)propyl)-3-((2,4-dioxo-3,4-dihydropyrimidin-1(2H)-yl)methoxy)propane-1-sulfonamide] | 90 |
| O=c1ccn(COCCCS(=O)(=O)NCc2ccc(F)c(OC3CCCC3)c2)c(=O)[nH]1 [Example 44, N-(3-(cyclopentyloxy)-4-fluorobenzyl)-3-((2,4-dioxo-3,4-dihydropyrimidin-1(2H)-yl)methoxy)propane-1-sulfonamide] | 160 |
| O=c1ccn(COCCCS(=O)(=O)NCc2cccc(OC3CCCCC3)c2)c(=O)[nH]1 [Example 45, N-(3-(cyclohexyloxy)benzyl)-3-((2,4-dioxo-3,4-dihydropyrimidin-1(2H)-yl)methoxy)propane-1-sulfonamide] | 2010 |
| O=c1ccn(COCCCS(=O)(=O)NCc2cccc(OC3CCOCC3)c2)c(=O)[nH]1 [Example 46, 3-((2,4-dioxo-3,4-dihydropyrimidin-1(2H)-yl)methoxy)-N-(3-(tetrahydro-2H-pyran-4-yloxy)benzyl)propane-1-sulfonamide] | 2350 |
| C[C@@H](NS(=O)(=O)CCCOCn1ccc(=O)[nH]c1=O)c1cccc(OC2CCOCC2)c1 [Example 47, (R)-3-((2,4-dioxo-3,4-dihydropyrimidin-1(2H)-yl)methoxy)-N-(1-(3-(tetrahydro-2H-pyran-4-yloxy)phenyl)ethyl)propane-1-sulfonamide] | 210 |
| C[C@@H](NS(=O)(=O)CCCOCn1ccc(=O)[nH]c1=O)c1ccc(F)c(OC2CCOCC2)c1 [Example 48, (R)-3-((2,4-dioxo-3,4-dihydropyrimidin-1(2H)-yl)methoxy)-N-(1-(4-fluoro-3-(tetrahydro-2H-pyran-4-yloxy)phenyl)ethyl)propane-1-sulfonamide] | 140 |
| C[C@@H](NS(=O)(=O)CCCOCn1ccc(=O)[nH]c1=O)c1cccc(O[C@H]2CCOC2)c1 [Example 49, 3-((2,4-dioxo-3,4-dihydropyrimidin-1(2H)-yl)methoxy)-N—((R)-1-(3-((S)-tetrahydrofuran-3-yloxy)phenyl)ethyl)propane-1-sulfonamide] | 940 |
| C[C@@H](NS(=O)(=O)CCCOCn1ccc(=O)[nH]c1=O)c1cccc(OC(F)(F)C(F)F)c1 [Example 51, (R)-3-((2,4-dioxo-3,4-dihydropyrimidin-1(2H)-yl)methoxy)-N-(1-(3-(1,1,2,2-tetrafluoroethoxy)phenyl)ethyl)propane-1-sulfonamide] | 830 |
| C[C@@H](NS(=O)(=O)CCCOCn1ccc(=O)[nH]c1=O)c1cccc(OCC(C)(C)C)c1 [Example 52, (R)-3-((2,4-dioxo-3,4-dihydropyrimidin-1(2H)-yl)methoxy)-N-(1-(3-(neopentyloxy)phenyl)ethyl)propane-1-sulfonamide] | 510 |
| C[C@@H](NS(=O)(=O)CCCOCn1ccc(=O)[nH]c1=O)c1cccc(OCC(F)(F)F)c1 [Example 53, (R)-3-((2,4-dioxo-3,4-dihydropyrimidin-1(2H)-yl)methoxy)-N-(1-(3-(2,2,2-trifluoroethoxy)phenyl)ethyl)propane-1-sulfonamide] | 230 |
| C[C@@H](NS(=O)(=O)CCCOCn1ccc(=O)[nH]c1=O)c1ccc(F)c(OCC(F)(F)F)c1 [Example 54, (R)-3-((2,4-dioxo-3,4-dihydropyrimidin-1(2H)-yl)methoxy)-N-(1-(4-fluoro-3-(2,2,2-trifluoroethoxy)phenyl)ethyl)propane-1-sulfonamide] | 230 |
